Legend:
Ratten = test: Rat swim test (Porsolt), antidepressant effect; format: in vivo; details: rats
Procedure: Die vorzügliche Eignung von N-Methyl-Nimodipin als Prodrug für Nimodipin zeigt sich auch in seiner antidepressiven Wirkung. Im Rattenschwimmtest (vgl. R.D. Porsolt et al., European Journal of Pharmacology 47; 379 bis 391) zeigen Ratten, die 20 mg der erfindungsgemäßen Verbindung per os appliziert bekommen, eine um ca. 20 % reduzierte Immobilitätsphase im Vergleich zur Kontrolle (n = 6).

[1] = Plasma levels after oral administration; format: in vivo

| Compound | reduzierte Immobilitätsphase im Vergleich zur Kontrolle (Ratten; 20 mg per os, n = 6) | Plasmaspiegel von Nimodipin und bekannten Nimodipinmetaboliten ([1]; oral administration of N-Methyl-nimodipin, after 15 minutes, compared with plasma levels after multiple administration of corresponding amounts of Nimodipin) | Plasmakonzentration an unverändertem N-Methyl-Nimodipin ([1]; oral administration, same time point (15 minutes), relative to the plasma levels of Nimodipin and metabolites) | Immobilitätsphase im Rattenschwimmtest, in words (Ratten; corresponding amount of Nimodipin, compared with N-Methyl-Nimodipin) |
| --- | --- | --- | --- | --- |
| COCCOC(=O)C1=C(C)N(C)C(C)=C(C(=O)OC(C)C)C1c1cccc([N+](=O)[O-])c1 (racemic) [N-Methyl-nimodipin, (±)-1,2,6-Trimethyl-4-(3-nitrophenyl)-1,4-dihydropyridin-3,5-dicarbonsäure-isopropyl-2-methoxyethyl-ester] | ca. 20% | mindestens so hoch sind wie die entsprechenden Plasmaspiegel nach Mehrfachapplikation entsprechender Nimodipinmengen | etwa doppelt so hohe Plasmakonzentration |  |
| COCCOC(=O)C1=C(C)NC(C)=C(C(=O)OC(C)C)C1c1cccc([N+](=O)[O-])c1 (racemic) [Nimodipin, (±)2,6-Dimethyl-4-(3-nitrophenyl)-1,4-dihydropyridin-3,5-dicarbonsäure-isopropyl-2-methoxyethyl-ester] |  |  |  | vergleichbare Ergebnisse |

From patent EP0536603A1, “N-Methyl-nimodipine, process for its preparation, and its use as cerebral vasodilator” (BAYER AG, priority 1991, dated 1993)
